{
  "source": "paper PMC7059793",
  "about": "“Novel Chemical Scaffolds to Inhibit the Neutral Amino Acid Transporter B^0AT1 (SLC6A19), a Potential Target to Treat Metabolic Diseases” (Frontiers in Pharmacology, 2020)",
  "key": {"B^0AT1 [1]": {"biological_target": "T1, B^0AT1 (Homo sapiens, UniProt Q695T7)", "T1 construct": "expressed in transfected cells", "T1 sequence (Q695T7 1-634)": "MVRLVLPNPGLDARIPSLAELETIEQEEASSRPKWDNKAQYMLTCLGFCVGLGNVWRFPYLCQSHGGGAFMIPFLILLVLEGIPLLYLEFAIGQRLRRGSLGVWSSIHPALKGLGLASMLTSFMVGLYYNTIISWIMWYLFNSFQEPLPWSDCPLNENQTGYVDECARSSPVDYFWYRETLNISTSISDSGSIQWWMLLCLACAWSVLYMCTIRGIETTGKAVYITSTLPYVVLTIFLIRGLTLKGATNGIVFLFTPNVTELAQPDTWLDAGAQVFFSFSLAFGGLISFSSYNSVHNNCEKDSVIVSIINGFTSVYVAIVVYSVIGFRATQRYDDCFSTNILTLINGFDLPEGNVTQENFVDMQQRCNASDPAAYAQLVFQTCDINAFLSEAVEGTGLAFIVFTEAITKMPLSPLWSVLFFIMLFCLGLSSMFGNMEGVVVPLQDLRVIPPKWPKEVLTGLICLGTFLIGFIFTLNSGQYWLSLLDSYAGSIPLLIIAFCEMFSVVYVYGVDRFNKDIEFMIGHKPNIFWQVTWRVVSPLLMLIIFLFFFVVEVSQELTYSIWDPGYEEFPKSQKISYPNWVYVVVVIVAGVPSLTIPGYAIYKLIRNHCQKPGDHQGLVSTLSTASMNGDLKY", "T1 sequence (Q9HBJ8 15-222 partner)": "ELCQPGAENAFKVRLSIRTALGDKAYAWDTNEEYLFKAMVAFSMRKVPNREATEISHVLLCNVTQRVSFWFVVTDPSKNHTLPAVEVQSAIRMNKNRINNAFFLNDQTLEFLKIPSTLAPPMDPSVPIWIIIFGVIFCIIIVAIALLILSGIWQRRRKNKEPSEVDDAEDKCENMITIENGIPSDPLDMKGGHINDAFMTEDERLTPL", "assay": "Radioactive flux assay (radiolabelled leucine/isoleucine uptake) in CHO-BC cells", "type": "cell-based", "details": "150 μM [14C]leucine or [14C]isoleucine, 6 min, 37°C", "experimental": "CHO-BC cells with passage numbers from 3 to 10 were used in radio-labelled uptake assays. Before the assay, the cells were seeded out in 35 mm dishes (Corning) and maintained for 48–72 h until reaching 80–90% confluence. To initiate transport, the culture medium was removed and the cells washed three times with HBSS + G. Subsequently, cells were incubated with HBSS + G, radiolabelled substrates (150 μM L-[U-^14C]leucine or 150 μM L-[U-^14C]isoleucine) and inhibitors as indicated in the figures or table in a 37°C water bath for 6 min. To terminate transport, cells were washed three times with ice-cold HBSS pH 7.5. For measuring sodium-independent uptake, NaCl in Hank’s buffer was replaced by NMDG-Cl. Cells were then harvested by homogenizing with 500 µl of 0.1 M HCl. An aliquot of 400 µl was used for scintillation counting and the remainder for protein quantification. To investigate inhibition of ASCT2, uptake of 100 μM [^14C]glutamine was measured in 143B cells in the absence and presence of inhibitor (at 10 μM and 50 μM). To measure inhibition of LAT1, uptake of [^14C]leucine was measured in HBSS + G in which NaCl was replaced by NMDG-Cl in 143B cells in the absence and presence of inhibitor (at 10 μM and 50 μM).\n(§1) Data are shown as mean ± S.D., transport activities indicated as Na^+-dependent net uptake, were calculated by subtracting the uptake activity in the absence of Na^+ from the total uptake rate. The fluorescent signals measured in the FLIPR assay were normalized to baseline readings before the addition of substrates. Data are presented as percentage of baseline at each time point. IC50 was calculated using the equation: y=ymax(1−[x]/[x]+IC50) ."}, "B^0AT1 [2]": {"biological_target": "T1, B^0AT1", "assay": "Membrane potential detecting FLIPR assay in CHO-BC cells", "type": "cell-based", "details": "30 min pre-incubation, leucine or isoleucine 1.5 mM", "experimental": "CHO-B^0AT1-collectrin Cells (CHO-BC) were generated, cultured, and used as described recently ([Cheng et al., 2017]). Expression levels of B^0AT1 in CHO-BC cells decline over time. As a result, passages <10 were used for experiments. The cells were maintained in Ham’s F-12 glutamax media with 10% (v/v) fetal bovine serum (FBS, Heat inactivated, 10082147 Gibco), 1mM glutamine, 300μg/ml hygromycin B and 275 μg/ml geneticin.\nMembrane depolarisation induced by amino acid transport was monitored using a FLIPR® kit (Molecular Devices, R8042 BLUE DYE). Before the assay, CHO-BC cells were seeded out at a density of 60,000 cells/well and maintained in a flat transparent bottom 96-well plate (Corning) overnight. After washing three times with Hank’s balanced salt solution (136.6 mM NaCl, 5.4 mM KCl, 0.44 mM KH2PO4, 2.7mM Na2HPO4, 1.26mM CaCl2, 0.5mM MgCl2, 0.4 mM MgSO4, 10mM HEPES, pH 7.5, supplemented with 5 mM glucose, abbreviated HBSS + G), cells in each well were incubated for 30 min at room temperature in 50 µl of HBSS pH 7.5 containing 5 mM glucose and compounds as indicated, together with 50 µl of dye-loading buffer provided with the kit. Subsequently, the fluorescence signal was detected every 10 s before and after the addition of leucine or isoleucine at a final concentration of 1.5 mM. Fluorescence was detected at room temperature using a PerkinElmer multimode Plate Reader, with an excitation wavelength of 530 nm and emission wavelength of 565 nm.\nas §1"}, "B^0AT1 [3]": {"biological_target": "T2, B^0AT1 (Mus musculus, UniProt Q9D687)", "T2 construct": "from tissue; host or cells: small intestine of C57/BL6J female mice, inverted 1 cm sections", "T2 sequence (Q9D687 whole entry)": "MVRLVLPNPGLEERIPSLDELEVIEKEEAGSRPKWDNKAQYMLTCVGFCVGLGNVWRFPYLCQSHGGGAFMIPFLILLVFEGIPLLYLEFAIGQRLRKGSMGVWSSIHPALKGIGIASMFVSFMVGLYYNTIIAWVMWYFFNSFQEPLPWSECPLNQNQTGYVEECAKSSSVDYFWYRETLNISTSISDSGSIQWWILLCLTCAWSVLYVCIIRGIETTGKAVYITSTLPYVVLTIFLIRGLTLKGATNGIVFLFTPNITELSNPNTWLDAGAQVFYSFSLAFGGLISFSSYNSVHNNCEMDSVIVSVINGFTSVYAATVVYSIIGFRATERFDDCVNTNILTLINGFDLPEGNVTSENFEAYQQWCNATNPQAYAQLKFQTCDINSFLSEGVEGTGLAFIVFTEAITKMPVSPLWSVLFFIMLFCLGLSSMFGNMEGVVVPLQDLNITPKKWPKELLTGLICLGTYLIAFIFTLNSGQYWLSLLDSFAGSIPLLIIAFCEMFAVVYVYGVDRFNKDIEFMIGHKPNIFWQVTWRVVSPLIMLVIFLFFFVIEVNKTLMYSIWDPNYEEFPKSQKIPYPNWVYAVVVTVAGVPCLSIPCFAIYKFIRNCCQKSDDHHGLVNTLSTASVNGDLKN", "T2 sequence (Q8R0I0 18-805 partner)": "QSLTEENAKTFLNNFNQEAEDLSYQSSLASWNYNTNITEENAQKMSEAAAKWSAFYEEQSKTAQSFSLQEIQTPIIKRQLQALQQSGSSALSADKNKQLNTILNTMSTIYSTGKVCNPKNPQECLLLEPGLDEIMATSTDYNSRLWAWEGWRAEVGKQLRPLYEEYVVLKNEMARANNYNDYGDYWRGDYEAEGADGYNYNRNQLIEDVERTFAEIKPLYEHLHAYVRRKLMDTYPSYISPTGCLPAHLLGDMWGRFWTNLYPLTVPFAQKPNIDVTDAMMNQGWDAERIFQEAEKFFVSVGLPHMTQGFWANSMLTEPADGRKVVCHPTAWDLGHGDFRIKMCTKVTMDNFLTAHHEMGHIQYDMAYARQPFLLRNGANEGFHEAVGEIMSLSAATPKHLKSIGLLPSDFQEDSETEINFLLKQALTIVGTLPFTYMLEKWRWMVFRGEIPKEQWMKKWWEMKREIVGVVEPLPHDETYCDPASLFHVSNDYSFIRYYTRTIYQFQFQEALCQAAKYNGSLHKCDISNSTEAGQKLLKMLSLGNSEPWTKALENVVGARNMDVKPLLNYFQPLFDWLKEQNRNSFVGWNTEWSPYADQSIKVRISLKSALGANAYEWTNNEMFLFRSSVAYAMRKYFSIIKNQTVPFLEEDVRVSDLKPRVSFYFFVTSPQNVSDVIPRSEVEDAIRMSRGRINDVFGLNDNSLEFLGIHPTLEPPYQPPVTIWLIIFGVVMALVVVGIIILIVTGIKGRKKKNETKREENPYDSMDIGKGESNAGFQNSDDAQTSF", "assay": "Na+-dependent leucine uptake in inverted sections of mouse intestine", "details": "50 μM inhibitor, 150 μM [14C]leucine", "text": "For uptake assays with inverted sections of mouse small intestine, 5–7 months old C57/BL6J female mice were sacrificed by cervical dislocation (Animal ethics protocol A2016/41, Australian National University). The small intestine was removed and the intestinal lumen was rinsed with ice-cold 0.9% NaCl. Subsequently, the small intestine was inverted on a metal rod to expose the mucosa. The inverted intestine was then cut into 1 cm pieces and fitted onto enzyme spatulas, which were immersed in HBSS pH 7.5 supplemented with 1 mM glutamine and protease inhibitor (Roche Complete). After washing twice in modified HBSS pH 7.5 (containing 10% NaCl + 90% NMDG-Cl for Na^+-dependent uptake and 100% NMDG-Cl for Na^+-independent uptake, both buffers supplemented with 1 mM glutamine) to remove residual compounds, the segments were pre-incubated in the same buffer in the presence of 50 µM of transport inhibitor and protease inhibitors for 15 min. At the end of the pre-incubation, the segments were transferred for 30 s into uptake buffer at 37°C (HBSS pH 7.5 supplemented with 150 μM [^14C]leucine and 50 µM transport inhibitor). For Na^+-dependent uptake regular HBSS was used, for Na^+-independent uptake NaCl was replaced by NMDG-Cl. Subsequently, the segments were rinsed three times in ice-cold HBSS pH 7.5 and lysed in 400 µl of 10% SDS. After 2–3 h, the lysed tissues were analyzed by scintillation counting.\nTo test whether the novel B^0AT1 inhibitors block the transporter in a more physiological environment, we studied leucine uptake in inverted sections of mouse intestine ( Figure 6C ). We established previously that Na^+-dependent leucine uptake (blue bars) in this system is mediated by B^0AT1 ([Broer et al., 2011]). In addition leucine uptake has a Na^+-independent transport component (salmon coloured bars), which is most likely mediated by rbat/b^0,+AT. Because of variability between animals, all data were normalized to uninhibited controls from the same animal."}, "B^0AT1 [4]": {"biological_target": "T1, B^0AT1", "details": "reference not printed at the place; ref Danthi et al., 2019; cited from earlier work"}, "B^0AT1 [5]": {"tested_on": "B^0AT1", "details": "rat brush-border B^0AT1 in proteoliposomes; ref Pochini et al., 2014; cited from earlier work"}},
  "note": "Like-named read-outs stand apart in the source and are kept apart here.",
  "data": [
    {"compound": "CN1[C@@H]2CC[C@H]1C[C@@H](OC(c1ccccc1)c1ccccc1)C2", "note": "[Benztropin, benztropine, reference compound]", "values": [
      {"measurement": "IC50", "setting": "B^0AT1 [1]", "value": "71 ± 8", "unit": "µM"},
      {"measurement": "IC50", "setting": "B^0AT1 [2]", "value": "44 ± 9", "unit": "µM"}
    ]},
    {"compound": "CCNC(=O)/C=C/c1cccc(Br)c1", "note": "[Cinromide, cinromide, reference compound]", "values": [
      {"measurement": "Inhibition of Na+-dependent leucine uptake (B^0AT1) ex vivo", "setting": "B^0AT1 [3]", "value": "limited capacity to inhibit B^0AT1"},
      {"measurement": "IC50", "setting": "B^0AT1 [4]", "value": 0.3, "unit": "µM"},
      {"measurement": "IC50", "setting": "B^0AT1 [2]", "value": "0.5 ± 0.08", "unit": "µM"}
    ]},
    {"compound": "COc1ccc(C(CCCN2CCOCC2)c2ccccc2)cc1", "note": "(stereo not shown) [Compound E-47]", "values": [
      {"measurement": "IC50", "setting": "B^0AT1 [1]", "value": "17 ± 9", "unit": "µM"},
      {"measurement": "IC50", "setting": "B^0AT1 [2]", "value": "21 ± 6", "unit": "µM"}
    ]},
    {"compound": "COc1ccc(C(CCCN2CCCCC2)c2ccccc2)cc1", "note": "(stereo not shown) [Compound E-53]", "values": [
      {"measurement": "IC50", "setting": "B^0AT1 [1]", "value": "8 ± 4", "unit": "µM"},
      {"measurement": "IC50", "setting": "B^0AT1 [2]", "value": "31 ± 15", "unit": "µM"}
    ]},
    {"compound": "COc1ccc(C(CCCN2CCOCC2)c2ccc(C)cc2)cc1", "note": "(stereo not shown) [Compound E-62]", "values": [
      {"measurement": "IC50", "setting": "B^0AT1 [1]", "value": "16 ± 8", "unit": "µM"},
      {"measurement": "IC50", "setting": "B^0AT1 [2]", "value": "20 ± 1", "unit": "µM"}
    ]},
    {"compound": "COc1ccc(C(CCCN2CCCCC2)c2ccc(C)cc2)cc1", "note": "(stereo not shown) [Compound E-63]", "values": [
      {"measurement": "IC50", "setting": "B^0AT1 [1]", "value": "39 ± 10", "unit": "µM"},
      {"measurement": "IC50", "setting": "B^0AT1 [2]", "value": "32 ± 14", "unit": "µM"}
    ]},
    {"compound": "COc1ccc(C(CCCN2CCOCC2)c2ccc(F)cc2)cc1", "note": "(stereo not shown) [Compound E-68]", "values": [
      {"measurement": "IC50", "setting": "B^0AT1 [1]", "value": "19 ± 6", "unit": "µM"},
      {"measurement": "IC50", "setting": "B^0AT1 [2]", "value": "33 ± 9", "unit": "µM"}
    ]},
    {"compound": "COc1ccc(C(CCCN2CCCCC2)c2ccc(F)cc2)cc1", "note": "(stereo not shown) [Compound E-69]", "values": [
      {"measurement": "IC50", "setting": "B^0AT1 [1]", "value": "46 ± 7", "unit": "µM"},
      {"measurement": "IC50", "setting": "B^0AT1 [2]", "value": "94 ± 20", "unit": "µM"}
    ]},
    {"compound": "Cc1ccc(C(CCCN2CCOCC2)c2ccc3c(c2)OCO3)cc1", "note": "(stereo not shown) [Compound E-84]", "values": [
      {"measurement": "IC50", "setting": "B^0AT1 [1]", "value": "19 ± 4", "unit": "µM"},
      {"measurement": "IC50", "setting": "B^0AT1 [2]", "value": "31 ± 3", "unit": "µM"}
    ]},
    {"compound": "Cc1ccc(C(CCCN2CCCCC2)c2ccc3c(c2)OCO3)cc1", "note": "(stereo not shown) [Compound E-85]", "values": [
      {"measurement": "IC50", "setting": "B^0AT1 [1]", "value": "8 ± 2", "unit": "µM"},
      {"measurement": "IC50", "setting": "B^0AT1 [2]", "value": "36 ± 11", "unit": "µM"}
    ]},
    {"compound": "COc1ccc(C(CCCN2CCOCC2)c2ccc3c(c2)OCO3)cc1", "note": "(stereo not shown) [Compound E-89]", "values": [
      {"measurement": "IC50", "setting": "B^0AT1 [1]", "value": "34 ± 7", "unit": "µM"},
      {"measurement": "IC50", "setting": "B^0AT1 [2]", "value": "39 ± 4", "unit": "µM"}
    ]},
    {"compound": "COc1ccc(C(CCCN2CCCCC2)c2ccc3c(c2)OCO3)cc1", "note": "(stereo not shown) [Compound E-90]", "values": [
      {"measurement": "IC50", "setting": "B^0AT1 [1]", "value": "25 ± 8", "unit": "µM"},
      {"measurement": "IC50", "setting": "B^0AT1 [2]", "value": "74 ± 19", "unit": "µM"}
    ]},
    {"compound": "c1ccc(CCCN2CCCCC2Cc2ccccc2)cc1", "note": "(stereo not shown) [NSC22789, reference compound]", "values": [
      {"measurement": "IC50", "setting": "B^0AT1 [1]", "value": "78 ± 16", "unit": "µM"},
      {"measurement": "IC50", "setting": "B^0AT1 [2]", "value": "90 ± 21", "unit": "µM"}
    ]},
    {"compound": "CS(=O)(=O)Nc1ccc([N+](=O)[O-])cc1Oc1ccccc1", "note": "[Nimesulide]", "values": [
      {"measurement": "IC50", "setting": "B^0AT1 [5]", "value": 23, "unit": "µM"}
    ]}
  ]
}
